According to patent US20050234073A1, “Methods of inhibiting inflammation” (priority 2003, published 2005):
Marks after values point to notes of the source that are not given here. Each block holds one molecule with its values, some of them ahead of it.

Columns and labels:
[1] = Hapten-induced (oxazolone) colitis; assay type: in vivo, mouse
Experimental: The hapten-induced colitis model using oxazolone (4-ethoxymethylene-2-phenyl-2-oxazolin-5-one) as the hapten was established in WT B6 or MTP^flox/floxMx1Cre mice as previously described. Briefly, 6 week-old female mice were injected intraperitoneally with vehicle or 500 μg pIpC at days 1, 3, 5 and 7 followed by application of 200 μl of 3% oxazolone (Sigma-Aldrich, St. Louis, Mo.) in 100% ethanol on the abdomen at day 8. On day 14, mice were anesthetized with tribromo-ethanol (Sigma-Aldrich) and 150 μl of 1% oxazolone in 50% ethanol administered per rectum via a 3.5F catheter. Wasting was monitored until day 18 at which time the mice were sacrificed and tissue samples collected for histological examination. Colonic tissue specimens for histological assessment of colitis were fixed in 10% buffered formalin phosphate and embedded in paraffin, cut into 5 micron thick sections and stained with hematoxylin-eosin. The stained paraffin sections were evaluated by for the following parameters of colitis on a scale of 0 to 3 according to known methods: hypervascularity, mononuclear cell infiltration, crypt hyperplasia, epithelial injury or ulceration, polymorphonuclear cell infiltration or crypt abscesses.
The effect of MTPp gene deletion on the clinicopathologic outcome of oxazolone-induced colitis was examined.

[2] = assay type: in vivo, mouse
Experimental: αGalCer was kindly provided by Dr. Michael Brenner (Brigham and Women's Hospital, Boston, Mass.). […] Mice were sacrificed and sera from peripheral blood subjected to […] (ALT) or aminoaspartate transferase (AST) assays. The kinetic quantitative determination of ALT in serum was performed by ALT/SGPT LIQUI-UV (Stanbio Laboratory, Boeme, Tex.) according to the manufacture's instructions. Fresh liver samples were collected for macroscopic and microscopic inspection. For microscopic examination, liver tissues were immediately fixed in 10% buffered formalin phosphate and embedded in paraffin, cut into sections and stained with hematoxylin-eosin. The clinical response to a hepatocyte mediated, CD1d-dependent response in vivo was evaluated (Osman, Y. et al. Eur. J. Immunol. 30, 1919-1928 (2000)). […] The latter was evident from the absence of elevations of transaminases (FIG. 2D, panels c and d), macroscopic liver necrosis (FIG. 2E, panel d) or microscopic evidence of hepatitis (FIG. 2F, panel d) in the MTP^flox/floxMx1Cre mice that received αGalCer with prior pIpC treatment.

[3] = biological target: recombinant murine CD1d, beta2m associated, purified by baculovirus expression system (mouse) (UniProt P11609); experiment: cell-based or functional assay
CD1d = experiment: Flow cytometric analysis of CD1d surface expression on splenocytes of pIpC treated mice; assay type: in vivo, mouse; conditions: for Mean fluorescence intensity: CD1d; for Mean fluorescence intensity / % CD1d+: splenocytes
Excerpt: Mouse cells were stained using the following antibodies: FITC-conjugated α-CD1d (1B1, PharMingen); PE-conjugated α-CD11c (HL3, PharMingen); FITC-conjugated α-1-A^d (AMS-32.1, PharMingen); PE-conjugated α-CD69 (H1.2F3, PharMingen); PE-conjugated α-B220 (RA3-6B2, PharMingen). Human cells were stained using: PE-conjugated α-CD83 (550634, PharMingen); FITC-conjugated α-HLA-A,B,C (557348, PharMingen); α-HLA DR,DP,DQ (32381A, PharMingen); α-CD1d (42.1 or 51.1.3); α-mouse IgG+IgM (AMI1708, Biosource, Camarillo, Calif.). Staining was performed in the presence of Via-Probe (PharMingen) and analyzed with a FACSort flow cytometer (Becton Dickinson).

[4] = Assessment of plasma lipids and body weight after pIpC treatment; assay type: in vivo, mouse
Experimental: Female 6-8 week-old of both MTP^pflox/floxMx1Cre mice and WT B6 mice that had been injected intraperitoneally with either PBS as control or 500 μg polyinosinic-polycytidylic ribonucleic acid (pIpC, Sigma, St. Louis, Mo.) in PBS every other day for a total of four doses were sacrificed one or 10 days after the last pIpC injection at which time sera was obtained from peripheral blood. The serum was subjected to total cholesterol and triglyceride assays at the clinical laboratory of Brigham and Women's Hospital (Boston, Mass.).
To further substantiate a direct biochemical relationship between CD1d and MTP, the effects on CD1d expression and function was examined in a conditional MTP-deficient mouse model which contains a “floxed” MTPp gene (MTPp^flox/flox) that had been intercrossed with mice expressing Mx1 promoter controlled, Cre-recombinase (Raabe, M. et al. J. Clin. Invest. 103, 1287-1298 (1999); Bjorkegren, J., Beigneux, A., Bergo, M. O., Maher, J. J. & Young, S. G. J. Biol. Chem. 277, 5476-5483 (2002)). The Mx1 promoter is induced by interferon-inducing substances such as polyinosinic-polycytidylic acid (pIpC) (Raabe, M. et al. J. Clin. Invest. 103, 1287-1298 (1999); Bjorkegren, J., Beigneux, A., Bergo, M. O., Maher, J. J. & Young, S. G. J. Biol. Chem. 277, 5476-5483 (2002); Ralf, K., Schwenk, F., Aguet, M. & Rajewsky, K. Science. 269, 1427-1429 (1995)) such that treatment of MTPp^flox/floxMx1Cre mice with pIpC leads to deletion of the MTPp gene (MTPp^Δ/Δ) primarily within the liver, spleen and intestine providing a degree of tissue specificity to the gene deletion. As previously reported, treatment of 6-10 week old MTPp^flox/floxMx1Cre mice (or MTP^flox/floxMx1Cre mice) with pIpC caused progressive hepatic steatosis (1C) and decreases in serum triglyceride and cholesterol levels (Table 5) in association with decreased MTP mRNA levels as defined by RT-PCR (FIG. 1D) and protein levels (FIG. 1E) in liver and colon.

[5] = C57BL/6J mice, 1 day after treatment
[6] = C57BL/6J mice, 10 days after treatment
[7] = MTPflox/floxMx1Cre mice, 1 day after treatment
[8] = MTPflox/floxMx1Cre mice, 10 days after treatment

recombinant murine CD1d, beta2m associated, purified by baculovirus expression system (mouse), sequence (P11609 22-305): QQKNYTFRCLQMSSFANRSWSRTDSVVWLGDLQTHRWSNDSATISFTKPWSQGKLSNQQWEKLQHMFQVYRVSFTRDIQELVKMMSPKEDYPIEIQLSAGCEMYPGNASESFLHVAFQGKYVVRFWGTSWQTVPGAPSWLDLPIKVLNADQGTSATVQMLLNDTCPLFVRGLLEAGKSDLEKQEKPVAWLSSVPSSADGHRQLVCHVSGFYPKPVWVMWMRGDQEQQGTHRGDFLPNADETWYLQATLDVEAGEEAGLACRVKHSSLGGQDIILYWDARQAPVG

Molecule: CCOC=C1N=C(c2ccccc2)OC1=O [oxazolone, 4-ethoxymethylene-2-phenyl-2-oxazolin-5-one]
colitis induction ([1]; MTPflox/floxMx1Cre mice without pIpC): severe colitis

Molecule: CCCCCCCCCCCCCCCCCCCCCCCCCC(=O)N[C@@H](CO[C@H]1O[C@H](CO)[C@H](O)[C@H](O)[C@H]1O)[C@H](O)[C@H](O)CCCCCCCCCCCCCC [αGalCer, α-galactosylceramide]
hepatitis induction ([2]; wild-type C57BL/6J and MTPflox/floxMx1Cre mice, without pIpC-induced deletion): induced hepatitis

MTP-mediated PE transfer to CD1d [3]: 0.4 to 1.6 picomoles
fluorescence of NBD-labeled PE transferred to plate-coated CD1d [3]: 5 fold
Molecule: MTP purified from rat liver (from UniProt D4A1W8 22-896; P04785 20-509)

hepatic inflammation ([2]; mouse, in vivo): absence of inflammation
Molecule: polyinosinic-polycytidylic ribonucleic acid [pIpC]
Mean fluorescence intensity (CD1d; B6 mice): 8.0
Mean fluorescence intensity (CD1d; MTPmx1 mice): 6.2 +/− 0.9*
CD1d expression (CD1d; control wild-type mice injected with pIpC): No reduction
% CD1d+ (CD1d; B6 mice): 42.2%
% CD1d+ (CD1d; MTPmx1 mice): 29.9 +/− 4.7* %
colitis in response to oxazolone ([1]; MTPflox/floxMx1Cre mice pretreated with pIpC): little evidence of colitis
colitis ([1]; WT B6 mice exposed to oxazolone with pIpC administration): not ameliorated
Serum triglycerides [4, 5]: 88.1 ± 6.6 mg/dL
Total S. Cholesterol [4, 5]: 96.2 ± 12.2 mg/dL
Serum triglycerides [4, 6]: 110.0 ± 11.2 mg/dL
Total S. Cholesterol [4, 6]: 127.0 ± 5.8 mg/dL
Serum triglycerides [4, 7]: 52.0 ± 7.5 mg/dL
Total S. Cholesterol [4, 7]: 55.1 ± 9.7 mg/dL
Serum triglycerides [4, 8]: 43.5 ± 7.3 mg/dL
Total S. Cholesterol [4, 8]: 49.2 ± 3.1 mg/dL
